This note sets out measurements from patent US20260274922A1, “SYNTHETIC ESTROGEN RECEPTOR (ER)-DERIVED PEPTIDE” (THE TEXAS A&M UNIVERSITY SYSTEM, priority 2023, published 2026).

Holding throughout (type): cell-based
For assay [1], the system named is IRS1. Nature of the assay: IRS1 protein levels in ERα deficient mouse primary hepatocytes treated with MG132. The conditions noted are these: ERαLivKO hepatocytes, 10 μM MG132 for 3 hours. The protocol: Representative blots are shown. […] Co-immunoprecipitation was performed.
Primary hepatocytes isolation and cell culture. Primary hepatocytes were isolated. Male mice at age of 8-12 weeks were infused with a perfusion buffer A (calcium and magnesium-free HBSS supplemented with 10 mM HEPES, 50 mM EGTA, 1 mM glucose, and 1% penicillin-streptomycin, pH 7.4) through portal vein for 6-8 min. Then perfusion buffer A was changed to buffer B (calcium and magnesium-free HBSS supplemented with 10 mM HEPES, 1 mM CaCl2), 1 mM glucose, 1% penicillin-streptomycin, and 0.5 mg/mL collagenase II, pH 7.4). […] Liver cells were suspended and passed through a 70 μm cell strainer, followed by centrifuge at 1700 rpm for 2 min. Pellets were resuspended with Percoll at final concentration of 36% and centrifuged at 1800 rpm for 6 min. The hepatocyte pellet was washed and suspended with DMEM supplemented with 10% FBS and 1% penicillin-streptomycin in collagen-coated plates. The HepG2 cell line was purchased from Abcam and cultured with DMEM medium supplemented with 10% FBS and 1% penicillin-streptomycin in collagen-coated plates. The human embryo kidney (HEK) 293 cell line was purchased from Sigma and cultured with DMEM medium supplemented with 10% FBS and 1% penicillin-streptomycin. […]
(§1) Co-immunoprecipitation and Western blotting analysis. […] Protein bands were detected using a ChemiDoc image system.

The test system of a further assay is HepG2 cells (IRS1, pAKT). In words: Gain-of-function of ERα domains on insulin sensitivity in HepG2 cells. The conditions noted are these: overexpression. The procedure: Primary hepatocytes isolation and cell culture. Primary hepatocytes were isolated. Male mice at age of 8-12 weeks were infused with a perfusion buffer A (calcium and magnesium-free HBSS supplemented with 10 mM HEPES, […], 1 mM glucose, and 1% penicillin-streptomycin, pH 7.4) through portal vein for 6-8 min. Then perfusion buffer A was changed to buffer B (calcium and magnesium-free HBSS supplemented with 10 mM HEPES, 1 mM CaCl2), 1 mM glucose, 1% penicillin-streptomycin, and 0.5 mg/mL collagenase II, pH 7.4). […] Liver cells were suspended and passed through a 70 μm cell strainer, followed by centrifuge at 1700 rpm for 2 min. Pellets were resuspended with Percoll at final concentration of 36% and centrifuged at 1800 rpm for 6 min. The hepatocyte pellet was washed and suspended with DMEM supplemented with 10% FBS and 1% penicillin-streptomycin in collagen-coated plates. The HepG2 cell line was purchased from Abcam and cultured with DMEM medium supplemented with 10% FBS and 1% penicillin-streptomycin in collagen-coated plates. The human embryo kidney (HEK) 293 cell line was purchased from Sigma and cultured with DMEM medium supplemented with 10% FBS and 1% penicillin-streptomycin. FBS-free DMEM medium was used to culture cells during the experiments.
as §1

Assay [2] addresses T1, IRS1 (Homo sapiens, UniProt P35568).
T1 sequence (P35568 1-1242): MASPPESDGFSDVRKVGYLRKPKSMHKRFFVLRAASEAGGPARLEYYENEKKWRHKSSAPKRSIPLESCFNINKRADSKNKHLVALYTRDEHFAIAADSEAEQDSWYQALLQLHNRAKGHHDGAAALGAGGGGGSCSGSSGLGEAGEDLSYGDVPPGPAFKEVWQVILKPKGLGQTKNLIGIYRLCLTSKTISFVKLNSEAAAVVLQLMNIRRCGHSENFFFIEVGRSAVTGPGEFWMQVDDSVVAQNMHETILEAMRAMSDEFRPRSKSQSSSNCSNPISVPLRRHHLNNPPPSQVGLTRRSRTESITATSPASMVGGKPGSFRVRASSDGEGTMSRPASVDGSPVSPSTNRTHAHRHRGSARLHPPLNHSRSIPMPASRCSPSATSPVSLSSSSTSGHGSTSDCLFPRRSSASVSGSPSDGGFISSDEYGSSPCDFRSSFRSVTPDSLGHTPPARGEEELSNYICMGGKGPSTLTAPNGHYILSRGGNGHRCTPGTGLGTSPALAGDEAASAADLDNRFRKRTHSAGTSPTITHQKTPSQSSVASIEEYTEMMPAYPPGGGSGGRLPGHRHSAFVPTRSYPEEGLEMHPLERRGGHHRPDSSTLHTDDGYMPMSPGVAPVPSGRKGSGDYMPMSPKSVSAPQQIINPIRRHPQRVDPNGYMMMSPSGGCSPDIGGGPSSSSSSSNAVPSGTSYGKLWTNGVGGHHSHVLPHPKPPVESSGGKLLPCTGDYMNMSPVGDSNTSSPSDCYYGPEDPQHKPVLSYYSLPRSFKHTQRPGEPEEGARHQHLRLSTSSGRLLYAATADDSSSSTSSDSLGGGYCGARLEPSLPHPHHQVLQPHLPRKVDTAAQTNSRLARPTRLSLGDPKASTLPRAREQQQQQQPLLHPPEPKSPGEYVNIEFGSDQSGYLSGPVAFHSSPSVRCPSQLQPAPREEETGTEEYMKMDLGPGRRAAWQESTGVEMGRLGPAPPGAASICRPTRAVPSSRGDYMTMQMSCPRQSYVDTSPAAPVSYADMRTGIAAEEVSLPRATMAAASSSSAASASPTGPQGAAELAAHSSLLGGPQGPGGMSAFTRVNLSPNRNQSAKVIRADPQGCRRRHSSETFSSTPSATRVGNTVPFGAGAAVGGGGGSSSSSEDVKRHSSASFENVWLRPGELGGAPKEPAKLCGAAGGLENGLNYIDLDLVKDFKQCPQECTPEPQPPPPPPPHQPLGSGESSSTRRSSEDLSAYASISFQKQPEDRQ
In words: Immunofluorescence staining in HEK293T cells. The procedure:
Immunofluorescence staining. Cells were fixed with 4% formaldehyde solution, followed by incubation with blocking buffer (1×PBS/5% normal serum/0.3% Triton X-100) for 1 h. After rinsing three times using PBS, cells were incubated with primary antibodies overnight at 4° C. Cells were washed with PBS and incubated with secondary antibodies (anti-mouse Alexa Flour 594 Conjugated) at room temperature 1-2 h. Cells were covered with DAPI-contained mounting medium. Fluorescent signal was observed using Confocal microscopy (Leica).

The test system of the next assay is ERα mRNA. In words: ERα mRNA expression in mouse primary hepatocytes treated with insulin. The note with it: 200 nM insulin for 12 hours. An excerpt:
FIGS. 8A and 8B show the hyperinsulinemia decreases ERα mRNA expression in mouse primary hepatocytes. […] Data are presented as mean±SEM. * p<0.05, One-way ANOVA.
RNA extraction and quantitative real-time PCR. Total RNA was extracted from livers or primary hepatocytes using TRIzol (Invitrogen, Thermo Fisher Scientific), purified with chloroform, 80% ethanol, isopropanol, and RNA column, eluted with RNase free water, and reverse transcribed into cDNA using iScript Reverse Transcription Supermix (Bio-Rad, Hercules, CA). Quantitative real-time PCR (qPCR) was conducted using SsoAdvanced Universal SYBR Green Supermix (Bio-Rad, Hercules, CA) on CFX384 real-time PCR detection system (Bio-Rad, Hercules, CA). Q-PCR started with 95° C. incubation for 3 min, followed by 39 cycles of 95° C. for 5 s and 60° C. for 30 s. The threshold cycle (CT) values were obtained and used to calculate the relative transcriptional level of target genes by 2^−ΔΔCT method with Cyclophilin (Cyp) as an internal control. […].

Where a SMILES comes first, the peptide text is derived from it. The star is where a group is joined. Cbz = O=C(OCc1ccccc1)*

For `CC(C)C[C@@H](C=O)NC(=O)[C@H](CC(C)C)NC(=O)[C@H](CC(C)C)NC(=O)OCc1ccccc1` [MG132] (Cbz-Leu-Leu-Leu-aldehyde), the IRS1 protein levels result with IRS1 [1] is “significantly increased”.
On to “MTMTLHTKASGMALLHQIQGNELEPLNRPQLKIPLERPLGEVYLDSSKPAVYNYPEGAAY (Description of sequence: ER-alpha amino acids 1-60) [ERα 1-60, ERα amino acids 1-60 domain]”, for which, in the assay with HepG2 cells (IRS1, pAKT), the “enhancement of insulin-stimulated AKT phosphorylation” value is ~ 26% and the “increase in IRS1” value was ~ 80%. Also, in the assay with IRS1 [2], the “colocalization with IRS1” value was “colocalization with IRS1”.
On the same counts, the results for “TKASGMALLHEPLNRPQLKIPLERDSSKPAVYNY (Description of sequence: AF1 domain portion sequence) [34-amino acid-peptide, overexpressed in cells]” are ~ 26%, ~ 80% and “colocalization with IRS1”.
As to “insulin: insulin used to treat primary hepatocytes (200 nM)”, in the assay on ERα mRNA, the “mRNA expression levels of ERα” value is recorded as “significantly decreased”.

B1: ERα 60-280: ERα 60-280 domain, overexpressed in HepG2 cells (protein, UniProt P03372 60-280, looked up, fragment)
chain: YEFNAAAAANAQVYGQTGLPYGPGSEAAAFGSNGLGGFPPLNSVSPSPLMLLHPPPQLSPFLQPHGQQVPYYLENEPSGYTVREAGPPAFYRPNSDNRRQGGRERLASTNDKGSMAMESAKETRYCAVCNDYASGYHYGVWSCEGCKAFFKRSIQGHNDYMCPATNQCTIDKNRRKSCQACRLRKCYEVGMMKGGIRKDRRGGRMLKHKRQRDDGEGRGEV
As for B1, in the assay on HepG2 cells (IRS1, pAKT), the IRS1 protein levels entry is given as “no significant effect” and the “insulin-induced AKT phosphorylation” value is listed as “no significant effect”.
